{"source": "patent US20230015949A1", "about": "“NEISSERIA TREATMENT USING CANNABINOIDS” (priority 2019, published 2023)", "key": {"Neisseria gonorrhoeae": {"test_system": "Neisseria gonorrhoeae", "experiment": "Broth microdilution MIC testing (Example 1)", "assay_type": "cell-based", "conditions": "Neisseria gonorrhoeae, broth microdilution, read-out: MIC", "procedure": "(§1) In this study, to evaluate the spectrum of activity, cannabidiol (CBD) was profiled against Neisseria. Testing was conducted following guidelines recommended by the Clinical and Laboratory Standards Institute (CLSI, 1-4), using vancomycin, meropenem, levofloxacin, and gentamicin as comparators for testing aerobic bacteria.\n(§2) Test agents were supplied by Micromyx. Stock solutions of all compounds were prepared on the first day of testing at 101× the highest test concentration using solvents recommended by CLSI. CBD was prepared fresh on each of testing.\n(§3) The test organisms evaluated in this study consisted of clinical isolates from the Micromyx Repository, reference isolates from the American Type Culture Collection (ATCC; Manassas, Va.), isolates from the antibiotic resistance bank from the Centers for Disease Control and Prevention (CDC; Atlanta, Ga.), and isolates from the Network on Antimicrobial Resistance in Staphylococcus aureus (NARSA; BEI Resources, Manassas, Va.). Upon initial receipt at Micromyx, the organisms were sub-cultured onto an appropriate agar medium. Following incubation, colonies were harvested from these plates and cell suspensions prepared and frozen at −80° C. with a cryoprotectant.\n(§4) Prior to testing, Neisseria was streaked onto Chocolate agar (BD; Lot No. 9228071) and incubated at 35° C. in 5% CO2 for 24 hr.\n(§5) For Neisseria, a modified medium described by the ATCC as capable of supporting growth was used. This medium contains 15 g Oxoid Special Peptone, 1 g corn starch (Ward's Science; Rochester, N.Y.; Lot 39-3271), 5 g NaCl (VWR; 57897), 4 g K2HPO4 (Sigma; Lot SLBT7061), 1 g KH2PO4 (SLBC1921V), and 1% IsoVitaleX (BD; Lot 8323954) enrichment per 500 mL.\n(§6) MIC values were determined using a broth microdilution procedure described by CLSI (1-4). Automated liquid handlers (Multidrop 384, Labsystems, Helsinki, Finland; Biomek 2000 and Biomek FX, Beckman Coulter, Fullerton, Calif.) were used to conduct serial dilutions and liquid transfers.\n(§7) To prepare the drug mother plates, which would provide the serial drug dilutions for the replicate daughter plates, the wells of columns 2 through 12 of standard 96-well microdilution plates (Costar 3795) were filled with 150 μl of the designated diluent for each row of drug. The test article and comparator compounds (300 μl at 101× the highest concentration to be tested) were dispensed into the appropriate wells in column 1. The Biomek 2000 was then used to make 2-fold serial dilutions in the mother plates from column 1 through column 11. The wells of column 12 contained no drug and served as the organism growth control wells for the assay.\n(§8) The daughter plates were loaded with 190 μL per well of the appropriate test medium for the tested organism using the Multidrop 384. The daughter plates were completed on the Biomek FX instrument which transferred 2 μL of drug solution from each well of a mother plate to the corresponding well of each daughter plate in a single step.\nA standardized inoculum of each test organism was prepared per CLSI methods (1-4). The inoculum for each organism was dispensed into sterile reservoirs divided by length (Beckman Coulter), and the Biomek 2000 was used to inoculate the plates. Daughter plates were placed on the Biomek 2000 work surface in reverse orientation so that inoculation took place from low to high drug concentration. Plates were inoculated with 10 μL of the inoculum resulting in a final cell density of approximately 5×10^5 CFU/mL per well.\nThe plates for testing of aerobic organisms were stacked 3 to 4 high, covered with a sterile lid, and incubated at 35° C. and 5% CO2 for the time periods specified in CLSI (1-4). […] Following incubation, the microplates were removed from the incubator and viewed from the bottom using a plate viewer. […] The MIC was read and recorded as the lowest concentration of drug that inhibited visible growth of the organism."}, "Neisseria meningitidis": {"test_system": "Neisseria meningitidis", "experiment": "Broth microdilution MIC testing (Example 1)", "assay_type": "cell-based", "conditions": "Neisseria meningitidis, ATCC13090; N. meningitidis MMX 0707 / ATCC 13090; broth microdilution; read-out: MIC", "procedure": "as §1, §2, §3, §4, §5, §6, §7, §8\nA standardized inoculum of each test organism was prepared per CLSI methods (1-4). The inoculum for each organism was dispensed into sterile reservoirs divided by length (Beckman Coulter), and the Biomek 2000 was used to inoculate the plates. […]\nThe plates for testing of aerobic organisms were stacked 3 to 4 high, covered with a sterile lid, and incubated at 35° C. and 5% CO2 for the time periods specified in CLSI (1-4). […] The MIC was read and recorded as the lowest concentration of drug that inhibited visible growth of the organism."}, "[1]": {"experiment": "Un-inoculated solubility control plate, drug precipitation", "assay_type": "physicochemical", "conditions": "Neisseria test medium and CAMHB"}}, "note": "Where two headings read alike, the source gives them in different places."}
{"smiles": "C=C(C)C1CCC(C)=CC1c1c(O)cc(CCCCC)cc1O", "note": "(centres unmarked) [CBD, 2-[3-methyl-6-(1-methylethenyl)-2-cyclohexen-1-yl]-5-pentyl-1,3-benzenediol]", "values": [{"measurement": "MIC", "setting": "Neisseria gonorrhoeae; ATCC49226, N. gonorrhoeae MMX 0683 / ATCC 49226, plate read at 40 hr", "value": 1, "unit": "µg/mL"}, {"measurement": "MIC", "setting": "Neisseria gonorrhoeae; N. gonorrhoeae MMX 6746", "value": 1, "unit": "µg/mL"}, {"measurement": "MIC", "setting": "Neisseria gonorrhoeae; N. gonorrhoeae MMX 6757, plate read at 40 hr", "value": 2, "unit": "µg/mL"}, {"measurement": "MIC", "setting": "Neisseria meningitidis", "value": 0.25, "unit": "µg/mL"}, {"measurement": "Concentration at which precipitation was seen", "setting": "[1]", "value": "≥ 8000", "unit": "ng/mL"}]}
